Laboratory results published in patent US20230041563A1, “N-(1,3,4-OXADIAZOL-2-YL)ARYLCARBOXAMIDES OR SALTS THEREOF, PREPARATION METHODS, HERBICIDAL COMPOSITIONS AND USES THEREOF” (priority 2018, published 2023).

Columns and labels:
Assay in all cases: Weeding effect in post-emergence stage (greenhouse pot spray)
Type in all cases: in vivo
Abutilon theophrasti = tested on: Abutilon theophrasti
Outline: (§1)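 Post-emergence foliar spray on 2-3 leaf greenhouse pot plants at 15 to 500 g a.i./ha with methyl oleate emulsifiable concentrate (1.5 liter/ha) added; growth control by fresh weight after 3 weeks.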

Digitaria sanguinalis = tested on: Digitaria sanguinalis
Outline: as §1

Echinochloa crusgalli = tested on: Echinochloa crusgalli
Outline: as §1

Amaranthus retroflexus = tested on: Amaranthus retroflexus
From the text: (§2) The activity level criteria for plant damage (i.e., growth control rate) are as follows:
(§3) The above growth control rates are fresh weight control rates.
(§4) Experiment on weeding effect in post-emergence stage: monocotyledonous and dicotyledonous weed seeds (Descurainia sophia, Capsella bursa-pastoris, Abutilon theophrasti, Galium aparine, Stellaria media, Lithospermum arvense, rorippa indica, Alopecurus aequalis, Beckmannia syzigachne, Sclerochloa dura, Phleum paniculatum, Bromus japonicus, Aegilops tauschii, Phalaris arundinacea, Amaranthus retroflexus, Chenopodiaceae, Commelina communis, Sonchus arvensis, convolvulus arvensis, Cirsium setosum, Solanum nigrum, Acalypha australis, Digitaria sanguinalis, Echinochloa crusgalli, Setaria viridis, Setaria glauca, Leptochloa chinensis, Monochoria vaginalis, Sagittaria trifolia, Scirpus juncoides, Cyperus rotundus, Cyperus iria, Cyperus difformis, Fimbristylis, Portulaca oleracea, Xanthium sibiricum, Pharbitis nil) and major crop seeds (wheat, corn, rice, soybean, cotton, oilseed rape, millet, sorghum, potato, sesame, ricinus) were placed in plastic pots filled with soil, then covered with 0.5-2 cm of soil, allowed to grow in a good greenhouse environment. After 2 weeks of sowing, the test plants were treated in the 2 to 3 leaf stage. The tested compounds of the present invention were respectively dissolved in acetone, then added with Tween 80 and 1.5 liter/ha of emulsifiable concentrate of methyl oleate as synergist, diluted with a certain amount of water to obtain a solution with a certain concentration, and sprayed with a spray tower onto the plants. After the application, the plants were cultured for 3 weeks in the greenhouse, and then the experimental results of the weeding were counted. The doses of the used compounds were 500, 250, 125, 60, 15 g a.i./ha, and the averages were obtained by repeating for three times.

Stellaria media = tested on: Stellaria media
From the text: as §2, §3, §4

Setaria viridis = details: Table 3, dose 250 g a.i./ha
Outline: as §1

SMILES | Abutilion theophrasti (activity level) (Abutilon theophrasti; Table 2, dose 500 g a.i./ha) | Digitaria sanguinalis (activity level) (Digitaria sanguinalis; Table 2, dose 500 g a.i./ha) | Echinochloa crusgah (activity level) (Echinochloa crusgalli; Table 2, dose 500 g a.i./ha) | Amaranthus retroflexus (activity level) (Amaranthus retroflexus; Table 2, dose 500 g a.i./ha) | Stellaria media (activity level) (Stellaria media; Table 2, dose 500 g a.i./ha) | Abutilion theophrasti (activity level) (Abutilon theophrasti; Table 2, dose 250 g a.i./ha) | Digitaria sanguinalis (activity level) (Digitaria sanguinalis; Table 2, dose 250 g a.i./ha) | Echinochloa crusgah (activity level) (Echinochloa crusgalli; Table 2, dose 250 g a.i./ha) | Amaranthus retroflexus (activity level) (Amaranthus retroflexus; Table 2, dose 250 g a.i./ha) | Stellaria media (activity level) (Stellaria media; Table 2, dose 250 g a.i./ha) | Digitaria sanguinahs (activity level) (Digitaria sanguinalis; Table 3, dose 250 g a.i./ha) | Echinochloa crusgali (activity level) (Echinochloa crusgalli; Table 3, dose 250 g a.i./ha) | Setaria viridis (activity level) (Setaria viridis)
CC(C)[S+]([O-])c1c(C(F)(F)F)ccc(C(=O)Nc2nnco2)c1F (centres unmarked) [Compound 3-11] | 5 (Level 5: growth control rate is above 85%) | 5 (Level 5: growth control rate is above 85%) | 5 (Level 5: growth control rate is above 85%) | 5 (Level 5: growth control rate is above 85%) | 5 (Level 5: growth control rate is above 85%) | – | – | – | – | – | – | – | –
Cc1nnc(NC(=O)c2ccc(C(F)(F)F)c(S(=O)(=O)CCC(F)(F)F)c2F)o1 [Compound 1-53] | 5 (Level 5: growth control rate is above 85%) | 5 (Level 5: growth control rate is above 85%) | 5 (Level 5: growth control rate is above 85%) | 5 (Level 5: growth control rate is above 85%) | 5 (Level 5: growth control rate is above 85%) | – | – | – | – | – | – | – | –
COC[S+]([O-])c1c(C(F)(F)F)ccc(C(=O)Nc2nnc(C)o2)c1F (centres unmarked) [Compound 1-443] | 5 (Level 5: growth control rate is above 85%) | 5 (Level 5: growth control rate is above 85%) | 5 (Level 5: growth control rate is above 85%) | 5 (Level 5: growth control rate is above 85%) | 5 (Level 5: growth control rate is above 85%) | – | – | – | – | – | – | – | –
Cc1nnc(NC(=O)c2ccc(C(F)(F)F)c(SCCC(F)(F)F)c2F)o1 [Compound 1-51] | 5 (Level 5: growth control rate is above 85%) | 5 (Level 5: growth control rate is above 85%) | 5 (Level 5: growth control rate is above 85%) | 5 (Level 5: growth control rate is above 85%) | 5 (Level 5: growth control rate is above 85%) | – | – | – | – | – | – | – | –
CNCC[S+]([O-])c1c(C(F)(F)F)ccc(C(=O)Nc2nnc(C)o2)c1F (centres unmarked) [Compound 1-441] | 5 (Level 5: growth control rate is above 85%) | 5 (Level 5: growth control rate is above 85%) | 5 (Level 5: growth control rate is above 85%) | 5 (Level 5: growth control rate is above 85%) | 5 (Level 5: growth control rate is above 85%) | – | – | – | – | – | – | – | –
Cc1nnc(NC(=O)c2ccc(C(F)(F)F)c(S(=O)(=O)C(C)C)c2F)o1 [Compound 1-12] | – | – | – | – | – | 5 (Level 5: growth control rate is above 85%) | 5 (Level 5: growth control rate is above 85%) | 5 (Level 5: growth control rate is above 85%) | 5 (Level 5: growth control rate is above 85%) | 5 (Level 5: growth control rate is above 85%) | – | – | –
Cc1nnc(NC(=O)c2ccc(C(F)(F)F)c(SCC(F)(F)F)c2F)o1 [Compound 1-50] | 5 (Level 5: growth control rate is above 85%) | 5 (Level 5: growth control rate is above 85%) | 5 (Level 5: growth control rate is above 85%) | 5 (Level 5: growth control rate is above 85%) | 5 (Level 5: growth control rate is above 85%) | – | – | – | – | – | – | – | –
C=CCC[S+]([O-])c1c(C(F)(F)F)ccc(C(=O)Nc2nnc(C)o2)c1F (centres unmarked) [Compound 1-397] | 5 (Level 5: growth control rate is above 85%) | 5 (Level 5: growth control rate is above 85%) | 5 (Level 5: growth control rate is above 85%) | 5 (Level 5: growth control rate is above 85%) | 5 (Level 5: growth control rate is above 85%) | – | – | – | – | – | – | – | –
CCOCC[S+]([O-])c1c(C(F)(F)F)ccc(C(=O)Nc2nnc(C)o2)c1F (centres unmarked) [Compound 1-446] | – | – | – | – | – | 5 (Level 5: growth control rate is above 85%) | 5 (Level 5: growth control rate is above 85%) | 5 (Level 5: growth control rate is above 85%) | 5 (Level 5: growth control rate is above 85%) | 5 (Level 5: growth control rate is above 85%) | – | – | –
CCCC[S+]([O-])c1c(C(F)(F)F)ccc(C(=O)Nc2nnco2)c1F (centres unmarked) [Compound 3-14] | 5 (Level 5: growth control rate is above 85%) | 5 (Level 5: growth control rate is above 85%) | 5 (Level 5: growth control rate is above 85%) | 5 (Level 5: growth control rate is above 85%) | 5 (Level 5: growth control rate is above 85%) | – | – | – | – | – | – | – | –
CCC[S+]([O-])c1c(C(F)(F)F)ccc(C(=O)Nc2nnco2)c1F (centres unmarked) [Compound 3-8] | 5 (Level 5: growth control rate is above 85%) | 5 (Level 5: growth control rate is above 85%) | 5 (Level 5: growth control rate is above 85%) | 5 (Level 5: growth control rate is above 85%) | 5 (Level 5: growth control rate is above 85%) | – | – | – | – | – | – | – | –
CCSc1c(C(F)(F)F)ccc(C(=O)Nc2nnco2)c1F [Compound 3-4] | 5 (Level 5: growth control rate is above 85%) | 5 (Level 5: growth control rate is above 85%) | 5 (Level 5: growth control rate is above 85%) | 5 (Level 5: growth control rate is above 85%) | 5 (Level 5: growth control rate is above 85%) | – | – | – | – | – | 5 (Level 5: growth control rate is above 85%) | 5 (Level 5: growth control rate is above 85%) | 5 (Level 5: growth control rate is above 85%)
Cc1nnc(NC(=O)c2ccc(C(F)(F)F)c(SCCO)c2F)o1 [Compound 1-59] | 5 (Level 5: growth control rate is above 85%) | 5 (Level 5: growth control rate is above 85%) | 5 (Level 5: growth control rate is above 85%) | 5 (Level 5: growth control rate is above 85%) | 5 (Level 5: growth control rate is above 85%) | – | – | – | – | – | – | – | –
